Laboratory results as given in ChEMBL document CHEMBL4414583, “Octahydro-Protoberberine and Protoemetine-Type Alkaloids from the Stems of Alangium salviifolium and Their Cytotoxicity” (J Nat Prod, 2019).

Assays:
Type in all cases: functional, cell-based
[1] = tested on: HeLa; assay: Cytotoxicity against human HeLa cells assessed as reduction in cell viability incubated for 72 hrs by MTT assay
[2] = tested on: SK-OV-3; assay: Cytotoxicity against human SKOV3 cells assessed as reduction in cell viability incubated for 72 hrs by MTT assay; conditions: SK-OV-3, 72 h
[3] = tested on: A549; assay: Cytotoxicity against human A549 cells assessed as reduction in cell viability incubated for 72 hrs by MTT assay; conditions: A549, 72 h

Row | SMILES | IC50 [1] [µM] | IC50 [2] [nM] | IC50 [3] [nM]
1 | CC[C@H]1CN2CCc3cc(OC)c(OC)cc3[C@@H]2C[C@@H]1C[C@H]1NCCc2c1[nH]c1ccccc21 | 0.1 | 3 | –
2 | CC[C@H]1CN2CCc3c(cc(OC)c(OC)c3O)[C@@H]2C[C@@H]1C[C@H]1NCCc2c1[nH]c1ccccc21 | 8.2 | 200 | 3000
3 | CC[C@H]1CN2CCc3c(cc(OC)c(OC)c3O)[C@@H]2C[C@@H]1C/C=[N+](/[O-])CC | > 10 | 5200 | > 10000
4 | COc1cc2c(cc1O)[C@@H]1C[C@@H]3CC=CC[C@H]3CN1CC2 | 9.2 | 13900 | 12500
5 | CC[C@H]1CN2CCc3cc(OC)c(O)cc3[C@@H]2C[C@@H]1CCO | 0.01 | 60 | 200
6 | CC[C@H]1CN2CCc3cc(OC)c(OC)cc3[C@@H]2C[C@@H]1CCO | 1.2 | 100 | 300
7 | CC[C@H]1CN2CCc3c(cc(OC)c(OC)c3O)[C@@H]2C[C@@H]1CCO | 5.3 | 3600 | 2100
8 | CO[C@@H]1C=C[C@@]23c4cc5c(cc4CN(C[C@@H]2O)[C@H]3C1)OCO5 [(+)-HAEMANTHAMINE] | 1.3 | 3700 | 3000
9 | CC[C@H]1CN2CCc3cc(OC)c(OC)cc3[C@@H]2C[C@@H]1C[C@H]1NCCc2cc(O)c(OC)cc21 [CEPHAELINE] | 7.6 | 100 | 3000
10 | CC[C@H]1CN2CCc3cc(OC)c(OC)cc3[C@@H]2C[C@@H]1C[C@@H]1NCCc2cc(O)c(OC)cc21 [ISOCEPHAELINE] | 9.4 | 3900 | 2700
11 | CC[C@H]1CN2CCc3cc(OC)c(OC)cc3[C@@H]2C[C@@H]1C[C@H]1NCCc2c1[nH]c1ccc(O)cc21 [TUBULOSINE] | > 10 | 400 | 2100
